Experimental data as given in US9981944B2, “GDF-8 inhibitors” (Rigel Pharmaceuticals, Inc., priority 2015, dated 2018).

Legend:
HIS-TGFβR2 WT = HIS-TGFβR2 WT (Homo sapiens (Human), UniProt P37173); assay: HTRF probe displacement assay, HIS-TGFβR2 WT; assay type: binding; conditions: 1 nM HIS-TGFβR2 WT, 1 hour at room temperature, read-out: TGFBR2WT IC50
Procedure: (§1) Compounds were dissolved at 10 mM in dimethylsulfoxide (DMSO) and evaluated at eleven concentrations. IC50 values were derived by non-linear regression analysis.

HIS-TGFβR1 T204D = HIS-TGFβR1 T204D (Homo sapiens (Human), UniProt P36897, T204D); assay: HTRF probe displacement assay, HIS-TGFβR1 T204D; assay type: binding; conditions: 1 nM HIS-TGFβR1 T204D, 1 hour at room temperature, read-out: TGFBR1T204D IC50
HIS-TGFβR1 T204D, sequence (P36897 34-503 T204D): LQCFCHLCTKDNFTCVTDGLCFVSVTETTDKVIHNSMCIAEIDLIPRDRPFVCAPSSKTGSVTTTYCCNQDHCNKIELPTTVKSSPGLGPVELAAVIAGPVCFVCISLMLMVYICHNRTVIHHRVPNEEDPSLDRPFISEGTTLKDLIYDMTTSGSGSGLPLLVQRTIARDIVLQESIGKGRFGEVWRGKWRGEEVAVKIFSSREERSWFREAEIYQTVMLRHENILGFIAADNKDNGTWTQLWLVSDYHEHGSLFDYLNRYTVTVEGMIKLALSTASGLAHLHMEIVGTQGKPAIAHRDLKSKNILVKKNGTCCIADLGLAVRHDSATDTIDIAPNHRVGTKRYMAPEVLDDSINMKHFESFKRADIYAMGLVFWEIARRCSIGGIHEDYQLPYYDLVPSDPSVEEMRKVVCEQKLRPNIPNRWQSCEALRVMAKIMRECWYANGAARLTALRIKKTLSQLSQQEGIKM
Procedure: as §1

HIS-TGFβR2 WT, sequence (P37173 23-567): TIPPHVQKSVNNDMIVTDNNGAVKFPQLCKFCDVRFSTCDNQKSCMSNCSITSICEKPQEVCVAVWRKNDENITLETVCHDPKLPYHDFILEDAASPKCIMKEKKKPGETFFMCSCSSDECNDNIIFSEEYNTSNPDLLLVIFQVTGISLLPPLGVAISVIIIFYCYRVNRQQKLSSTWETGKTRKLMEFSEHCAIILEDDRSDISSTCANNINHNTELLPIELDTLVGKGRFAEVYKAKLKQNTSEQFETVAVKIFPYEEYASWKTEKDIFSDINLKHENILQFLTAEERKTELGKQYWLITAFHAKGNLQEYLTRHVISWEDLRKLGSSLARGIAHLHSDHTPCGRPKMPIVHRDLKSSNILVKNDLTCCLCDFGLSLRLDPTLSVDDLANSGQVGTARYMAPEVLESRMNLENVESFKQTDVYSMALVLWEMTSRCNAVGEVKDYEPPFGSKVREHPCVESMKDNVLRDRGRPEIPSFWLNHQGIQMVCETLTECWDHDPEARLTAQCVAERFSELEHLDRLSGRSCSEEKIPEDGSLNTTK

| Compound | IC50 (HIS-TGFβR2 WT) [nM] | IC50 (HIS-TGFβR1 T204D) [nM] |
| --- | --- | --- |
| NC(=O)c1cnc2ccc(-c3cccnc3-c3cccc(C(F)(F)F)n3)cn12 [Compound 18, 6-(6′-(trifluoromethyl)-[2,2′-bipyridin]-3-yl)imidazo[1,2-a]pyridine-3-carboxamide] | > 15000 | 1 |
| Cc1nc(-c2ncccc2-c2ccc3ncc(C(N)=O)n3c2)ccc1F [Compound 19, 6-(5′-fluoro-6′-methyl-[2,2′-bipyridin]-3-yl)imidazo[1,2-a]pyridine-3-carboxamide] |  | 1 |
| NC(=O)c1cnc2ccc(-c3cccnc3-c3ccc(F)c(C(F)F)n3)cn12 [Compound 24, 6-(6′-(difluoromethyl)-5′-fluoro-[2,2′-bipyridin]-3-yl)imidazo[1,2-a]pyridine-3-carboxamide] | > 15000 |  |
| COC(=O)c1ccc(-c2ncccc2-c2ccc3ncc(C(N)=O)n3c2)nc1 [Compound 26, methyl 3′-(3-carbamoylimidazo[1,2-a]pyridin-6-yl)-[2,2′-bipyridine]-5-carboxylate] | > 15000 | 7650 |
| NC(=O)c1cnc2ccc(-c3cccnc3-c3ccc(C(=O)O)cn3)cn12 [Compound 27, 3′-(3-carbamoylimidazo[1,2-a]pyridin-6-yl)-[2,2′-bipyridine]-5-carboxylic acid] | > 15000 | 14300 |
| NC(=O)c1cnc2ccc(-c3cccnc3-c3cccc(C(F)F)n3)cn12 [Compound 29, 6-(6′-(difluoromethyl)-[2,2′-bipyridin]-3-yl)imidazo[1,2-a]pyridine-3-carboxamide] | > 15000 | 1 |
| CC(C)c1cccc(-c2ncccc2-c2ccc3ncc(C(N)=O)n3c2)n1 [Compound 32, 6-(6′-isopropyl-[2,2′-bipyridin]-3-yl)imidazo[1,2-a]pyridine-3-carboxamide] | > 15000 | 16 |
| COc1cccc(-c2ncccc2-c2ccc3ncc(C(N)=O)n3c2)n1 [Compound 33, 6-(6′-methoxy-[2,2′-bipyridin]-3-yl)imidazo[1,2-a]pyridine-3-carboxamide] |  | 1 |
| NC(=O)c1cnc2ccc(-c3cccnc3-c3cccc(C4CC4)n3)cn12 [Compound 35, 6-(6′-cyclopropyl-[2,2′-bipyridin]-3-yl)imidazo[1,2-a]pyridine-3-carboxamide] | > 15000 | 1 |
| NC(=O)c1cnc2ccc(-c3cccnc3-c3cccc(F)n3)cn12 [Compound 37, 6-(6′-fluoro-[2,2′-bipyridin]-3-yl)imidazo[1,2-a]pyridine-3-carboxamide] |  | 4 |
| Cc1cc(C)nc(-c2ncccc2-c2ccc3ncc(C(N)=O)n3c2)c1 [Compound 42, 6-(4′,6′-dimethyl-[2,2′-bipyridin]-3-yl)imidazo[1,2-a]pyridine-3-carboxamide] | > 15000 | 21 |
| Cc1nc(-c2ncccc2-c2ccc3ncc(C(N)=O)n3n2)ccc1F [Compound 43, 6-(5′-fluoro-6′-methyl-[2,2′-bipyridin]-3-yl)imidazo[1,2-b]pyridazine-3-carboxamide] | > 15000 | 17 |
| NC(=O)c1cnc2ccc(-c3cccnc3-c3cccc(Cl)n3)cn12 [Compound 46, 6-(6′-chloro-[2,2′-bipyridin]-3-yl)imidazo[1,2-a]pyridine-3-carboxamide] | > 15000 | 0.4 |
| Cc1cccc(-c2ncccc2-c2ccc3nccn3c2)n1 [Compound 47, 6-(6′-methyl-[2,2′-bipyridin]-3-yl)imidazo[1,2-a]pyridine] | > 15000 | 3 |
| Fc1ccc(-c2ncccc2-c2ccc3nccn3c2)nc1C(F)F [Compound 48, 6-(6′-(difluoromethyl)-5′-fluoro-[2,2′-bipyridin]-3-yl)imidazo[1,2-a]pyridine] | > 15000 | 26 |
| Cc1cccc(-c2ncc(F)cc2-c2ccc3ncc(C(N)=O)n3c2)n1 [Compound 82, 6-(5-fluoro-6′-methyl-[2,2′-bipyridin]-3-yl)imidazo[1,2-a]pyridine-3-carboxamide] |  | 1 |
| Cc1nc(-c2ncc(F)cc2-c2ccc3ncc(C(N)=O)n3c2)ccc1F [Compound 85, 6-(5,5′-difluoro-6′-methyl-[2,2′-bipyridin]-3-yl)imidazo[1,2-a]pyridine-3-carboxamide] |  | 2 |
| CC(=O)Nc1cnc(-c2cccc(C)n2)c(-c2ccc3ncc(C(N)=O)n3c2)c1 [Compound 97, 6-(5-acetamido-6′-methyl-[2,2′-bipyridin]-3-yl)imidazo[1,2-a]pyridine-3-carboxamide] |  | 5 |
| Cc1cccc(-c2ncc(N)cc2-c2ccc3ncc(C(N)=O)n3c2)n1 [Compound 98, 6-(5-amino-6′-methyl-[2,2′-bipyridin]-3-yl)imidazo[1,2-a]pyridine-3-carboxamide] |  | 2 |
| Cc1cccc(-c2ncc(N)cc2-c2ccc3ncc(C(=O)O)n3c2)n1 [Compound 99, 6-(5-amino-6′-methyl-[2,2′-bipyridin]-3-yl)imidazo[1,2-a]pyridine-3-carboxylic acid] |  | 4 |

Results, then the compound that gave them:

| IC50 (HIS-TGFβR2 WT) [nM] | IC50 (HIS-TGFβR1 T204D) [nM] | Compound |
| --- | --- | --- |
| > 15000 | 103 | N#Cc1cnc2ccc(-c3cccnc3-c3ccccn3)cn12 [Compound 13, 6-([2,2′-bipyridin]-3-yl)imidazo[1,2-a]pyridine-3-carbonitrile] |
| > 15000 | 10 | Cc1nc(-c2ncccc2-c2ccc3ncc(C#N)n3c2)ccc1F [Compound 15, 6-(5′-fluoro-6′-methyl-[2,2′-bipyridin]-3-yl)imidazo[1,2-a]pyridine-3-carbonitrile] |
| > 15000 | 207 | N#Cc1cnc2ccc(-c3cccnc3-c3cc(F)ccn3)cn12 [Compound 16, 6-(4′-fluoro-[2,2′-bipyridin]-3-yl)imidazo[1,2-a]pyridine-3-carbonitrile] |
| > 15000 | 9 | COc1cccc(-c2ncccc2-c2ccc3ncc(C#N)n3c2)n1 [Compound 17, 6-(6′-methoxy-[2,2′-bipyridin]-3-yl)imidazo[1,2-a]pyridine-3-carbonitrile] |
| > 15000 | 103 | N#Cc1cnc2ccc(-c3cccnc3-c3ccc(F)cn3)cn12 [Compound 20, 6-(5′-fluoro-[2,2′-bipyridin]-3-yl)imidazo[1,2-a]pyridine-3-carbonitrile] |
|  | 5 | NC(=O)c1cnc2ccc(-c3cccnc3-c3ccc(F)cn3)cn12 [Compound 21, 6-(5′-fluoro-[2,2′-bipyridin]-3-yl)imidazo[1,2-a]pyridine-3-carboxamide] |
|  | 5 | NC(=O)c1cnc2ccc(-c3cccnc3-c3cc(F)ccn3)cn12 [Compound 22, 6-(4′-fluoro-[2,2′-bipyridin]-3-yl)imidazo[1,2-a]pyridine-3-carboxamide] |
| > 15000 | 130 | N#Cc1cnc2ccc(-c3cccnc3-c3ccc(F)c(C(F)F)n3)cn12 [Compound 23, 6-(6′-(difluoromethyl)-5′-fluoro-[2,2′-bipyridin]-3-yl)imidazo[1,2-a]pyridine-3-carbonitrile] |
| > 15000 | 4480 | COC(=O)c1ccc(-c2ncccc2-c2ccc3ncc(C#N)n3c2)nc1 [Compound 25, methyl 3′-(3-cyanoimidazo[1,2-a]pyridin-6-yl)-[2,2′-bipyridine]-5-carboxylate] |
| > 15000 | 9 | N#Cc1cnc2ccc(-c3cccnc3-c3cccc(C(F)F)n3)cn12 [Compound 28, 6-(6′-(difluoromethyl)-[2,2′-bipyridin]-3-yl)imidazo[1,2-a]pyridine-3-carbonitrile] |
| > 15000 |  | CCc1cccc(-c2ncccc2-c2ccc3ncc(C#N)n3c2)n1 [Compound 30, 6-(6′-ethyl-[2,2′-bipyridin]-3-yl)imidazo[1,2-a]pyridine-3-carbonitrile] |
| > 15000 | 307 | CC(C)c1cccc(-c2ncccc2-c2ccc3ncc(C#N)n3c2)n1 [Compound 31, 6-(6′-isopropyl-[2,2′-bipyridin]-3-yl)imidazo[1,2-a]pyridine-3-carbonitrile] |
| > 15000 | 19 | N#Cc1cnc2ccc(-c3cccnc3-c3cccc(C4CC4)n3)cn12 [Compound 34, 6-(6′-cyclopropyl-[2,2′-bipyridin]-3-yl)imidazo[1,2-a]pyridine-3-carbonitrile] |
| > 15000 | 120 | N#Cc1cnc2ccc(-c3cccnc3-c3cccc(F)n3)cn12 [Compound 36, 6-(6′-fluoro-[2,2′-bipyridin]-3-yl)imidazo[1,2-a]pyridine-3-carbonitrile] |
| > 15000 | 1920 | N#Cc1cnc2ccc(-c3cccnc3-c3cccc(OCc4ccccc4)n3)cn12 [Compound 38, 6-(6′-(benzyloxy)-[2,2′-bipyridin]-3-yl)imidazo[1,2-a]pyridine-3-carbonitrile] |
|  | 6 | NC(=O)c1cnc2ccc(-c3cccnc3-c3ccccn3)cn12 [Compound 39, 6-([2,2′-bipyridin]-3-yl)imidazo[1,2-a]pyridine-3-carboxamide] |
| > 15000 | 821 | CC(=O)c1cccc(-c2ncccc2-c2ccc3ncc(C#N)n3c2)n1 [Compound 40, 6-(6′-acetyl-[2,2′-bipyridin]-3-yl)imidazo[1,2-a]pyridine-3-carbonitrile] |
| > 15000 | 15000 | CC(C)(O)c1cccc(-c2ncccc2-c2ccc3ncc(C#N)n3c2)n1 [Compound 41] |
| > 15000 | 1980 | CS(=O)(=O)Nc1cccc(-c2ncccc2-c2ccc3ncc(C#N)n3c2)n1 [Compound 44, N-(3′-(3-cyanoimidazo[1,2-a]pyridin-6-yl)-[2,2′-bipyridin]-6-yl)methanesulfonamide] |
| > 15000 | 907 | CC(=O)Nc1cccc(-c2ncccc2-c2ccc3ncc(C#N)n3c2)n1 [Compound 45, N-(3′-(3-cyanoimidazo[1,2-a]pyridin-6-yl)-[2,2′-bipyridin]-6-yl)acetamide] |
